In the oligonucleotide strings, read from the 5' end, every base follows the letter of its sugar. An asterisk marks phosphorothioate; unmarked linkages are phosphodiester. Other units and linkages are bracketed, terminal groups are in braces. A string of capitals states the bases alone. d = 2'-deoxy (DNA)

Series [1] deals with U- and C-alleles of the 544-mer fragment of the RPA70-1674U/C mRNA. Kind of series: E. coli RNase H digestion assay, oligo-directed cleavage in a purified system. The class given is biochemical, human. The following applies: for cleavage efficiency, matched allele versus mismatched allele: 544-mer RPA70 mRNA fragments, oligos target the SNP at position 1674; for reduction in the cleavage of both alleles as compared to parent oligo 3: 544-mer U- and C-alleles, E. coli RNase H; for enhancement in allele discrimination versus parent oligo 3: hairpin oligos, under the experimental conditions. An excerpt:
FIG. 3. E. coli RNase H digestion of both alleles of the 544-mer fragment of the RPA70-1674U/C mRNA. a, Nucleotide sequence of the PS-oligos used in the assay. Oligos 1 and 2 (SEQ ID NOs:6 and 7, respectively) target the polymorphic site; the bases opposing the polymorphism in the mRNA are shown in boldface. Oligos 3 and 6 (SEQ ID NOs:8 and 11, respectively) target the site of different allelic structures around nucleotide 1656. The terminal residues of oligos 1, 2, 3, and 6 (SEQ ID NOs:6, 7, 8, and 11, respectively) are labeled according to the positions of the complementary nucleotides in RPA70 mRNA. Oligos 4 and 5 (SEQ ID NOs:9 and 10, respectively) share the same target hybridization sequence as 3 (SEQ ID NO:8), but with additional nucleotides (shown underlined) added to facilitate folding into hairpin structures for intended enhancement in allele discrimination. b, E. coli RNase H digestion patterns of the 5′-^32P-labeled U- and C-alleles hybridized to the oligos in a. Cleavage sites were confirmed by running on the same gel RNase T1 digestion ladders for the two alleles (not shown): they are centered at position 1674 for oligos 1 and 2 (SEQ ID NOs:6 and 7), 1650 for oligos 3-5 (SEQ ID NOs:8-10), and 1654 for oligo 6 (SEQ ID NO:11). c, Comparison of percent cleavages of the U- and C-alleles calculated from b. Oligo-dependent-cleavage bands were integrated as a percentage of total RNA in each lane with the overlapping background-cleavage bands subtracted. Variations in sample loading to each lane were internally corrected by measuring percent cleavage instead of absolute band intensity.
E. coli RNase H Digestion Assay. Phosphorothioate oligodeoxyribonucleotides (PS-oligos) were employed in our studies because of their enhanced stability against nucleases (20). PS-oligos were chemically synthesized and desalted on C-18 cartridges by Synthetic Genetics. One, pmol of 5′-^32P-labeled mRNA was renatured in 12 μL RNase H buffer (20 mM Tris.HCl, pH 7.5, 10 mM KCl, 5 mM MgCl2, 0.1 mM dithiothreitol (DTT), 5% glycerol, and 10 μg phenol-extracted glycogen) by heating for 1 min at 85° C., then cooling for 5 min at room temperature followed by 10 min at 37° C. E. coli RNase H (0.6 units, Pharmacia) was then added to the renatured mRNA and incubated for 5 min at 37° C. PS-oligos (5 pmol in RNase H buffer) were subsequently added, and the reaction mixture (15 μL total) incubated for 20 min at 37° C. The digestion products were fractionated on a 4% denaturing polyacrylamide gel, and the cleavage patterns visualized by autoradiography. RNA levels were quantified using a phosphoimager (Fujifilm Model FLA-2000).
Allele-specific Cleavage of RPA70 mRNA in a Purified System. We first used an in vitro assay with E. coli RNase H and the in vitro transcribed 544-mer RPA70 mRNA fragments to examine the efficiency and allele specificity of structure-based targeting as compared to directly targeting the 1674U/C polymorphism. […] SNP-targeting oligos 1 and 2 were previously optimized for allele discrimination in a cell transfection assay (J. P. Basilion, unpublished results). Each of the SNP-targeting oligos is perfectly matched only with one of the two alleles; it is singly mismatched with the other allele. Single base mismatches formed between the SNP-targeting oligos and their respective non-targeting alleles contribute to the allele discrimination observed previously. Structure-targeting oligos 3 and 6 match perfectly with both alleles, and were designed to hybridize maximally with the single-stranded 1656 region of the U-allele, while avoiding the 1664 region which is slightly accessible in both alleles (FIG. 1b). Four and six additional nucleotides were added to the 5′-end of oligo 3 to produce oligos 4 and 5, respectively, to facilitate folding into hairpin structures for enhanced allele discrimination (27).

For series [2], the system named is 1674U-allele of endogenous RPA70 mRNA. Put plainly: Oligonucleotide-directed cleavage of endogenous RPA70 mRNA in HeLa cell extracts (Northern blot). The class given is biochemical, human. The following applies: for cleavage of matched allele versus singly mismatched allele: HeLa (1674U) versus Calu-1 (1674C) extracts. As to the method: (§1) FIG. 4. Northern blot analysis of oligonucleotide-directed cleavage of endogenous RPA70 mRNA in human cell extracts. The extracts were prepared from HeLa and Calu-1 cells that express only the 1674U- or the 1674 C-allele of the RPA70 mRNA, respectively. In addition to PS-oligos 1, 2, 3, and 6 as described in FIG. 3, oligo 7 (5′ […] 3′; SEQ ID NO:1) was used in the assay as a non-allele-specific control oligo that targets nucleotides 2230-2249 of the 3′-UTR of RPA70 mRNA. a, Targeting the 1674U/C polymorphic site by oligos 1 and 2. b, Targeting the site of different allelic structures around nucleotide 1656 by oligos 3 and 6. Reactions were done in duplicates. The averaged data points of the duplicates are plotted with standard deviations as error bars, and are shown below the corresponding Northern blots. Intact RPA70 mRNA levels were normalized to GAPDH levels and expressed as a percentage of no-oligo control for each experiment.
Oligonucleotide-directed Cleavage of Endogenous RPA70 mRNA in Human Cell Extracts. Human tumor cell lines HeLa and Calu-1 (American Type Culture collection) were genotyped for SNPs in RPA70 cDNA by RFLP analysis and by sequencing. […] HeLa cells were cultured in monolayers in minimum essential medium (Gibco BRL), and Calu-1 cells were cultured in monolayers in McCoy's 5A medium (Sigma). Both media were supplemented with 10% heat inactivated fetal bovine serum (JRH Biosciences), 100 units/mL penicillin-100 μg/mL streptomycin (Gibco BRL), and 2 mM L-glutamine (Gibco BRL). Both cell lines were grown under 5% CO2/95% air in a humidified incubator at 37° C. For preparation of cell extracts, the cells were grown to 80-90% confluence, typsinized, and washed twice with the complete medium as specified above and twice with phosphate buffered saline (Gibco BRL). Approximately 5×10^7 Cells were lysed in a 15 mL tissue grinder with a Teflon pestle (Wheaton) in the presence of 1.5 mL lysis buffer (20 mM Tris.HCl, pH 7.5, 420 mM NaCl, 2 mM MgCl2, 0.2 mM EDTA, 1 mM DTT, 0.5 mM phenylmethyl sulfonylfluoride (PMSF), and 25% glycerol). The sodium salt concentration was chosen to facilitate the disruption of the nuclear membrane to release RNase H from nuclei (21). Up to 200 strokes were needed to completely lyse the cells, as checked using a hemacytometer. The cell lysate was centrifuged at 14,000, rpm for 10 min at 4° C., and cell extracts were obtained by transferring supernatant to clean microcentrifuge tubes and freezing immediately at −80° C. Total protein concentration of cell extracts was determined using the Bradford assay (Bio-Rad). For oligodeoxynucleotide-directed cleavage of endogenous mRNA reactions, cell extracts were diluted to a total protein concentration of 3 mg/mL with the lysis buffer. After the addition of a 10× PS-oligo solution to the diluted cell extracts, the reaction mixture was incubated for 40 min at 37° C. The level of intact RPA70 mRNA was determined by total RNA isolation and Northern blot hybridization using procedures described previously (22, 23), and followed by phosphoimager analysis. Northern probes specific for RPA70 mRNA were synthesized by random primed [α-^32P]dCTP-labeling of a cDNA probe corresponding to nucleotides 1519-2080 of human RPA70 mRNA. To account for variability in the amount of total RNA loaded into individual gel wells for Northern analysis, the level of glyceraldehyde 3-phosphate dehydrogenase (GAPDH) mRNA was also measured by first stripping the RPA70 mRNA probe, and then reprobing the same Northern blot with a random primed [α-^32P]dCTP-labeled cDNA probe corresponding to a 600 nucleotide sequence of human GAPDH (Stratagene).
Allele-specific Cleavage of Endogenous RPA70 mRNA in Human Cell Extracts. We next performed oligo-directed cleavage of the full-length, endogenous RPA70 mRNA in whole cell extracts prepared from two genotyped human cell lines, HeLa (1674U) and Calu-1 (1674C). […]

The test system of series [3] is 1674C-allele of endogenous RPA70 mRNA. Kind of series: Oligonucleotide-directed cleavage of endogenous RPA70 mRNA in Calu-1 cell extracts (Northern blot). The following applies: 300 nM oligo, Calu-1 (1674C) extracts. It is filed as biochemical, human. How it is done: as §1
Oligonucleotide-directed Cleavage of Endogenous RPA70 mRNA in Human Cell Extracts. […] Total protein concentration of cell extracts was determined using the Bradford assay (Bio-Rad). […] The level of intact RPA70 mRNA was determined by total RNA isolation and Northern blot hybridization using procedures described previously (22, 23), and followed by phosphoimager analysis. […]

The test system of series [4] is 1674U- and 1674C-alleles of RPA70 mRNA. Kind of series: Cell transfection assay (J. P. Basilion, unpublished results). It is filed as cell-based, human. Conditions: previously shown.

For the substance “Oligo 2: Phosphorothioate oligodeoxyribonucleotide 18-mer (SEQ ID NO:7) targeting the RPA70 1674U/C polymorphic site, C-allele specific (dG*dC*dT*dT*dC*dA*dG*dC*dG*dG*dA*dC*dT*dC*dC*dT*dG*dG)”, in series [1], the “cleavage efficiency, matched allele versus mismatched allele” value is listed as “greater for their respective matched alleles than for the mismatched alleles”. Also, the “cleavage of matched allele versus singly mismatched allele” value in series [2] (300 nM oligo) is on record as “equally or slightly more cleaved than the singly mismatched allele”. In series [3], the “extent of cleavage of the matched allele (C-allele)” value is reported as “the majority of the matched allele remained uncleaved”.
In the case of “Oligo 3: Phosphorothioate oligodeoxyribonucleotide 20-mer (SEQ ID NO:8) targeting the site of different allelic structures around nucleotide 1656 of RPA70 mRNA (dC*dA*dA*dG*dT*dC*dA*dC*dC*dC*dA*dC*dT*dG*dA*dT*dT*dC*dT*dC)”, the U-allele remaining uncleaved in series [2] (300 nM oligo, HeLa (1674U) extracts, intact mRNA normalized to GAPDH, % of no-oligo control) came to 15%. Also, in series [2] (HeLa versus Calu-1 extracts, percentage of intact mRNA evaluated, 100, 300 and 600 nM), the “allele discrimination relative to that obtained by directly targeting the polymorphism with 20-mer 1” value was “two- to sixfold”. In addition, the “non-target C-allele intact” value in series [3] (intact mRNA normalized to GAPDH, % of no-oligo control) was “more than 90%”.
For “Oligo 4: PS-oligo (SEQ ID NO:9), oligo 3 with four additional 5′-end nucleotides to facilitate folding into a hairpin structure (GAATCAAGTCACCCACTGATTCTC; all phosphorothioate, sugars by position and methylation of C not given here)”, in series [1], the “reduction in the cleavage of both alleles as compared to parent oligo 3” value is listed as 23% and the “enhancement in allele discrimination versus parent oligo 3” value was “no enhancement in allele discrimination”.
Consider “5′ TGGTCTGCAGTTAGGGTCAG 3′ (phosphorothioate backbone, further chemistry not given here) [Oligo 7]”, for which the “response of the two cell types to the control oligo” value in series [2] (HeLa versus Calu-1 extracts, 100 to 600 nM) is “responded similarly”. Moreover, in series [4], the “targeting efficiency on the 1674U- and 1674C-alleles” value is “equally high efficiency”.
In the case of “Oligo 5: PS-oligo (SEQ ID NO:10), oligo 3 with six additional 5′-end nucleotides to facilitate folding into a hairpin structure (GAGAATCAAGTCACCCACTGATTCTC; all phosphorothioate, sugars by position and methylation of C not given here)”, in series [1], the “reduction in the cleavage of both alleles as compared to parent oligo 3” value worked out at 36% and the “enhancement in allele discrimination versus parent oligo 3” value is given as “no enhancement in allele discrimination”.
On to “Oligo 1: Phosphorothioate oligodeoxyribonucleotide 20-mer (SEQ ID NO:6) targeting the RPA70 1674U/C polymorphic site, U-allele specific (dT*dA*dG*dC*dT*dT*dC*dA*dG*dC*dA*dG*dA*dC*dT*dC*dC*dT*dG*dG)”, for which, in series [1], the “cleavage efficiency, matched allele versus mismatched allele” value is “greater for their respective matched alleles than for the mismatched alleles”. In addition, the “extent of cleavage of the matched allele (U-allele)” value in series [2] (300 nM oligo, HeLa (1674U) extracts) is given as “the majority of the matched allele remained uncleaved”. The “cleavage of matched allele versus singly mismatched allele” value in series [2] (300 nM oligo) is “equally or slightly more cleaved than the singly mismatched allele”.
In the case of “Oligo 6: Phosphorothioate oligodeoxyribonucleotide 15-mer (SEQ ID NO:11) targeting the site of different allelic structures around nucleotide 1656 of RPA70 mRNA (dC*dA*dA*dG*dT*dC*dA*dC*dC*dC*dA*dC*dT*dG*dA)”, the “allele discrimination compared with the other oligos” value in series [2] (HeLa versus Calu-1 extracts, all three oligo concentrations (100, 300, 600 nM)) is “better allele discrimination than the SNP-targeting oligos 1 and 2”.

Values taken from patent US8389484B2, “Methods for targeting RNA molecules” (priority 1999, dated 2013).
